The text below walks through data of patent US6979471B1, “Composition comprising pharmaceutical/nutraceutical agent and a bio-enhancer obtained from Glycyrrhiza glabra” (Council of Scientific and Industrial Research, priority 2000, dated 2005).

Holding throughout (assay type): cell-based
Test [1] concerns Escherichia coli (ATCC 10536). Put plainly: Broth assay for bio-enhancement of antibiotics: viable cell count, Escherichia coli.
In test [2] the test system is Mycobacterium smegmatis (ATCC 14468). Put plainly: Broth assay for bio-enhancement of antibiotics: viable cell count, Mycobacterium smegmatis. The settings on record: Table 3. On the procedure: (§1) For this, the cells are treated with the bioenhancer/compound for 4 to 8 hours and then washed free of it by centrifugation and washing in sterile water. […] 2. Assay for Bio-Enhancement of Anti-Cancer Agents • a) MCF-7 (Breast cancer cell line is inoculated at a density of about 0.1×10^6 cells in MEM medium in the wells of 24 well plate. • b) The used up medium in these cultures is replaced with fresh medium after 18 hours in each well. • c) The test compound (s) is added at desired concentrations in different wells just after the medium replacement. • d) Observations are recorded on the cell count after 36 hours for which the following steps are required. • i. The medium is removed from the wells. • ii. The wells are rinsed with 1 ml PBS (Phosphate buffer saline). • iii. To each well 500 μl of freshly prepared trypsin solution (0.1% in PBS) is added. • iv. Trypsin solution is removed after 30 seconds and the plate is gently tapped till the cells are released from the plate surface. • v. Fresh 1 ml of MEM growth medium is added and agitated with a pipette to obtain a cell suspension. • vi. 10 μl of cell suspension is taken on the haemocytometer and a cover glass is placed over the counting chamber. • vii. The number of viable cells is counted in 5 big squares and the reading is taken from 5 microscopic fields to determine the average. • viii. The cell count (titre per ml) in the original sample is then calculated as average count×10^3. Composition of Minimum Essential Medium (MEM): 100 ml
In the next step of elucidation of the enhancer action the applicants experimented with the killing activities of different antibiotics against the bacteria singly and in combination with the test compound glycyrrhizin following the method described above. These experiments are to be considered with assay for bioenhancement of the compounds glycyrrhizin/glycyrrhizic acid and licorice, as described earlier. […] In all the experiments the glycyrrhizin concentration was kept at 1 μg/ml, unless it is specifically mentioned.

The test system of a further test is Escherichia coli. Put plainly: Disc diffusion assay against Escherichia coli. On the procedure:
(§2) • a) The minimum inhibitory concentration (MIC) of any antibiotic or drug molecule is determined against Escherichia coli (ATCC 10536), Bacillus subtilis (ATCC 6015) and Mycobacterium smegmatis (ATCC 14468) and Candida albicans (ATCC 10231) in broth and disc diffusion assays. • b) The antibiotics or antifungal agents at concentrations 1/10, ⅛, ⅙, ¼, ⅓, ½ and equal to MIC are added alone and in combination with the test compound at varying concentrations in broth assays to evaluate the comparative level of inhibition and similarly at varying concentrations in disc diffusion assay. • c) The combinations showing enhancement in terms of higher activity than antibiotic alone for the inhibition of bacterial growth (large inhibition zone in disc diffusion and higher killing at lower concentration in broth assay) are picked up for future testing. • d) In broth assays the activity is quantified by counting number of viable cells in a given treatment and converted in fold enhancement by the combination treatment compared to antibiotic/drug alone in the killing percentage of cells. • e) The pretreatment assay is followed to determine whether the bioenhancer which may be either an extract obtained from the plant Glycyrrhiza glabra, glycyrrhizin or glycyrrhizic acid, is required along with antibiotic to enhance its activity or even its withdrawal after treatment or prior to antibiotic treatment would benefit. […] Assay for Bio-Enhancement of Anti-Cancer Agents • a) MCF-7 (Breast cancer cell line is inoculated at a density of about 0.1×10^6 cells in MEM medium in the wells of 24 well plate. • b) The used up medium in these cultures is replaced with fresh medium after 18 hours in each well. • c) The test compound (s) is added at desired concentrations in different wells just after the medium replacement. • d) Observations are recorded on the cell count after 36 hours for which the following steps are required. • i. […] The number of viable cells is counted in 5 big squares and the reading is taken from 5 microscopic fields to determine the average. • viii. […]
On the technique in general: In agar diffusion tests the substance spreads into inoculated agar from a disc or well.

The subject of the next test is Mycobacterium smegmatis. Kind of test: Disc diffusion assay against Mycobacterium smegmatis. On the procedure: as §2
The subject of test [3] is Candida albicans (ATCC 10231). Put plainly: Disc diffusion assay, antifungal agent against Candida albicans. On the procedure:
as §2

Test [4] relates to MCF-7 (Breast cancer cell line). Kind of test: Assay for bio-enhancement of anti-cancer agents: viable cell count after 36 hours. The following applies: glycyrrhizin alone, without taxol; untreated control […] 10^−6. On the procedure: as §1
Test [5] concerns Escherichia coli, Bacillus subtilis and Mycobacterium smegmatis. Kind of test: Bacteria grown with glycyrrhizin alone; pretreatment assay. On the procedure:
For this, the cells are treated with the bioenhancer/compound for 4 to 8 hours and then washed free of it by centrifugation and washing in sterile water. […] The medium is removed from the wells. • ii. The wells are rinsed with 1 ml PBS (Phosphate buffer saline). • iii. To each well 500 μl of freshly prepared trypsin solution (0.1% in PBS) is added. • iv. Trypsin solution is removed after 30 seconds and the plate is gently tapped till the cells are released from the plate surface. • v. Fresh 1 ml of MEM growth medium is added and agitated with a pipette to obtain a cell suspension. • vi. 10 μl of cell suspension is taken on the haemocytometer and a cover glass is placed over the counting chamber. • vii. […] The cell count (titre per ml) in the original sample is then calculated as average count×10^3. Composition of Minimum Essential Medium (MEM): 100 ml In the next step of elucidation of the enhancer action the applicants experimented with the killing activities of different antibiotics against the bacteria singly and in combination with the test compound glycyrrhizin following the method described above. These experiments are to be considered with assay for bioenhancement of the compounds glycyrrhizin/glycyrrhizic acid and licorice, as described earlier. […]

Setting [6] is: Escherichia coli, read-out: Net zone of inhibition.
The mark [7] stands for this setting: Mycolicibacterium smegmatis, read-out: Net zone of inhibition.

In general, zone of inhibition refers to the size of the clear area around the sample on an inoculated plate.

Consider `CO[C@H]1/C=C/O[C@@]2(C)Oc3c(C)c(O)c4c(O)c(c(/C=N/N5CCN(C)CC5)c(O)c4c3C2=O)NC(=O)/C(C)=C\C=C\[C@H](C)[C@H](O)[C@@H](C)[C@@H](O)[C@@H](C)[C@H](OC(C)=O)[C@@H]1C` [Rifampicin], for which the “Survival fraction of viable cells upon treatment with antibiotic alone (a)” value in test [1] (Table 1, antibiotic 10 μg/ml) is given as 0.42; in test [1] (Table 1, antibiotic 20 μg/ml), 0.28; in test [1] (Table 10, antibiotic 10 μg/ml) it was 0.420; in test [2] (antibiotic 0.5 μg/ml), 0.56 × 10^−4. In addition, the “Survival fraction of viable cells upon treatment with antibiotic- glycyrrhizin combination (b)” value in test [1] (Table 1, antibiotic 10 μg/ml + glycyrrhizin 1 μg/ml) is recorded as 0.11; in test [1] (Table 1, antibiotic 20 μg/ml + glycyrrhizin 1 μg/ml), 0.02; in test [2] (antibiotic 0.5 μg/ml + glycyrrhizin 1 μg/ml), 0.086 × 10^−4. Moreover, the “*Folds enhancement in antibiotic activity (a/b)” value in test [1] (Table 1, antibiotic 10 μg/ml, glycyrrhizin 1 μg/ml) turned out to be 3.8 folds; in test [1] (Table 1, antibiotic 20 μg/ml, glycyrrhizin 1 μg/ml) it was 14.0 folds; in test [1] (Table 7, antibiotic 20 μg/ml, glycyrrhizic acid), 2.03 folds; in test [1] (Table 10, antibiotic 10 μg/ml, licorice 25 μg/ml) it was 3.10 folds; in test [2] (antibiotic 0.5 μg/ml, glycyrrhizin 1 μg/ml), 6.5 folds. For the same compound, the “Survival fraction of viable cells upon treatment with antibiotic glycyrrhizic acid combination (b)” value in test [1] (Table 7, antibiotic 20 μg/ml + glycyrrhizic acid) was 0.281; in test [1] (Table 7, antibiotic 20 μg/ml + glycyrrhizic acid, listed as rifampicin), “about 0.281”; in test [1] (Table 10, antibiotic 10 μg/ml + licorice 25 μg/ml), 0.135. Moreover, the zone of inhibition at 500 µg/disc with Escherichia coli (setting [6]) is 2 mm. Also, the “Net zone of inhibition” value in the test with Escherichia coli (rifampicin 500 μg/disc + glycyrrhizic acid 4 μg/disc) was 3 mm; with Mycobacterium smegmatis (rifampicin 0.4 μg/disc + glycyrrhizic acid 4 μg/disc), 4 mm. The zone of inhibition at 0.4 µg/disc in the test on Mycobacterium smegmatis (setting [7]) was determined as 3 mm.
On to `Clc1ccccc1C(c1ccccc1)(c1ccccc1)n1ccnc1` [Clotrimazole], for which the zone of inhibition at 4 µg/disc in test [3] (Candida albicans, ATCC10231, clotrimazole 4 μg/disc alone, glycyrrhizin 0) is 7 mm. In test [3] (clotrimazole 4 μg/disc + glycyrrhizin 1 μg/disc), the Zone of inhibition turned out to be 11 mm.
Turning to `CC1(C)[C@@H](O[C@H]2O[C@H](C(=O)O)[C@@H](O)[C@H](O)[C@H]2O[C@@H]2O[C@H](C(=O)O)[C@@H](O)[C@H](O)[C@H]2O)CC[C@]2(C)[C@H]3C(=O)C=C4[C@@H]5C[C@@](C)(C(=O)O)CC[C@]5(C)CC[C@@]4(C)[C@]3(C)CC[C@@H]12` [Glycyrrhizin], the zone of inhibition at 1 µg/disc in test [3] (Candida albicans, ATCC10231, glycyrrhizin 1 μg/disc alone, clotrimazole 0) was found to be 0 mm. Also, the “Final titre of viable cells, without taxol, control (glycyrrhizin)” value in test [4] is recorded as 0.12 × 10^−6 per ml. Besides, the “Enhancement of antibiotic potency after pretreatment of bacterial cells” value in test [5] (cells pretreated with glycyrrhizin for 4–8 hours, washed free, then treated with antibiotics) was “the same results were observed”. Further, the “Killing of bacteria grown in presence of the compound as such” value in test [5] (glycyrrhizin alone, no antibiotic) was “no significant killing”.
Take `CC1(C)[C@@H](O[C@H]2O[C@H](C(=O)O)[C@@H](O)[C@H](O)[C@H]2O[C@@H]2O[C@H](C(=O)O)[C@@H](O)[C@H](O)[C@H]2O)CC[C@]2(C)[C@H]3C(=O)C=C4[C@@H]5C[C@@](C)(C(=O)O)CC[C@]5(C)CC[C@@]4(C)[C@]3(C)CC[C@@H]12` [Glycyrrhizic acid]: the zone of inhibition at 4 µg/disc with Escherichia coli (setting [6]) and in the test with Mycobacterium smegmatis (setting [7]) was 0 mm in each case.
